The term IC50 denotes the concentration needed to halve the response being measured. High values mean a need for much substance, low ones inhibition by little substance. As a reminder, the viability is a read-out of living cells in per cent, often relative to untreated cells. High values mean less harm to the cells, low ones more harm to the cells.

Data set [1] deals with NCI-H1155 (lung cancer cells). The data set is described as follows: CytoX cell viability assay, NCI-H1155 cells. The class given is cell-based. Conditions: 72 hours; for viability at 0.01 µM / viability at 0.5 µM: Homo sapiens. As for the experimental part:
The viability of NCI-H1155 (lung cancer cells) was measured using the CytoX cell viability assay kit (LPS Solution, #CYT3000). NCI-H1155 cells were seeded in a 12-well plate, and each compound of the present disclosure and a comparative compound (CC-90009) were treated at 10 nM and 500 nM concentrations for 72 hours. CytoX solution was then added to the cells and incubated for 1 hour.

The test system of a further data set is KG-1 cancer cells. The data set is described as follows: Cytotoxicity assay (WST-1), KG-1 cells. Conditions: Homo sapiens, 72 hours. The class given is cell-based. As for the experimental part:
Cancer cells (KG-1) were seeded at a density of 10,000 cells per well in 96-well plates. The compound of the present disclosure and control compounds (Comparative Compounds 1, 2, and 3) were treated at predetermined concentrations. After 72 hours, the cells were treated with WST-1 reagent for 1 hour. Then, absorbance was read at 450 nm using a SpectraMax spectrophotometer to determine cell viability.
For orientation: Tetrazolium assays rely on reduction of a dye to a coloured formazan, in cell work by metabolically active cells.

In the case of `O=C1CCC(N2Cc3cc(CNC(=O)C(F)(F)c4ccc(Cl)cc4)ccc3C2=O)C(=O)N1` (stereo not shown) [CC-90009, reference compound], in data set [1] (10 nM), the “NCI-H1155 (% viability) at 10 nM” value came to 85.0%. In addition, in data set [1] (500 nM), the “NCI-H1155 (% viability) at 500 nM” value was 23.25%.

In the case of `O=C1CCC(N2Cc3cc(CNC(=O)c4cc(-c5ccccc5)nc5ccccc45)ccc3C2=O)C(=O)N1` (stereo not shown) [Cpd. 1, N-((2-(2,6-dioxopiperidin-3-yl)-1-oxoisoindolin-5-yl)methyl)-2-phenylquinoline-4-carboxamide], the concentration for half-maximal inhibition (IC50) with KG-1 cancer cells came out at 0.8 nM.

`CC(C)c1ccc(-c2cc(C(=O)NCc3ccc4c(c3)CN(C3CCC(=O)NC3=O)C4=O)c3ccccc3n2)cc1` (stereo not shown) [Cpd. 2, N-((2-(2,6-dioxopiperidin-3-yl)-1-oxoisoindolin-5-yl)methyl)-2-(4-isopropylphenyl)quinoline-4-carboxamide]: the IC50 with KG-1 cancer cells came to 1.5 nM.

Take `Cc1ccc2nc(-c3ccccc3)cc(C(=O)NCc3ccc4c(c3)CN(C3CCC(=O)NC3=O)C4=O)c2c1` (stereo not shown) [Cpd. 3, N-((2-(2,6-dioxopiperidin-3-yl)-1-oxoisoindolin-5-yl)methyl)-6-methyl-2-phenylquinoline-4-carboxamide]: the IC50 with KG-1 cancer cells came out at 14 nM.

On to `Cc1cccc2c(C(=O)NCc3ccc4c(c3)CN(C3CCC(=O)NC3=O)C4=O)cc(-c3ccccc3)nc12` (stereo not shown) [Cpd. 4, N-((2-(2,6-dioxopiperidin-3-yl)-1-oxoisoindolin-5-yl)methyl)-8-methyl-2-phenylquinoline-4-carboxamide], for which the IC50 with KG-1 cancer cells was found to be 1 nM.

Consider `O=C1CCC(N2Cc3cc(CNC(=O)c4cc(-c5ccncc5)nc5ccccc45)ccc3C2=O)C(=O)N1` (stereo not shown) [Cpd. 7, N-((2-(2,6-dioxopiperidin-3-yl)-1-oxoisoindolin-5-yl)methyl)-2-(pyridin-4-yl)quinoline-4-carboxamide], for which the viability at 0.01 µM in data set [1] (10 nM) was 50%. In data set [1] (500 nM), this compound returned a viability at 0.5 µM of 5%.

The compound `O=C1CCC(N2Cc3cc(CNC(=O)c4cc(Cl)nc5ccccc45)ccc3C2=O)C(=O)N1` (stereo not shown) [Cpd. 8, 2-chloro-N-((2-(2,6-dioxopiperidin-3-yl)-1-oxoisoindolin-5-yl)methyl)quinoline-4-carboxamide] showed a viability at 0.01 µM in data set [1] (10 nM) of 86%. Besides, the viability at 0.5 µM in data set [1] (500 nM) was found to be 23%.

Consider `O=C1CCC(N2Cc3cc(CNC(=O)c4ccnc5ccccc45)ccc3C2=O)C(=O)N1` (stereo not shown) [Cpd. 9, N-((2-(2,6-dioxopiperidin-3-yl)-1-oxoisoindolin-5-yl)methyl)quinoline-4-carboxamide], for which the viability at 0.01 µM in data set [1] (10 nM) was 88%. Besides, the viability at 0.5 µM in data set [1] (500 nM) stood at 25%.

The compound `Cc1cccc2c(C(=O)NCc3ccc4c(c3)CN(C3CCC(=O)NC3=O)C4=O)cc(-c3cccnc3)nc12` (stereo not shown) [Cpd. 10, N-((2-(2,6-dioxopiperidin-3-yl)-1-oxoisoindolin-5-yl)methyl)-8-methyl-2-(pyridin-3-yl)quinoline-4-carboxamide] came in with a viability at 0.01 µM in data set [1] (10 nM) of 3%. In data set [1] (500 nM), this compound showed a viability at 0.5 µM of 4%.

Compound `Cc1c(-c2ccccc2)nc2ccccc2c1C(=O)NCc1ccc2c(c1)CN(C1CCC(=O)NC1=O)C2=O` (stereo not shown) [Cpd. 12, N-((2-(2,6-dioxopiperidin-3-yl)-1-oxoisoindolin-5-yl)methyl)-3-methyl-2-phenylquinoline-4-carboxamide] returned a viability at 0.01 µM in data set [1] (10 nM) of 59%. The compound also showed a viability at 0.5 µM in data set [1] (500 nM) of 24%.

In turn, `Cc1ccccc1-c1cc(C(=O)NCc2ccc3c(c2)CN(C2CCC(=O)NC2=O)C3=O)c2ccccc2n1` (stereo not shown) [Cpd. 13, N-((2-(2,6-dioxopiperidin-3-yl)-1-oxoisoindolin-5-yl)methyl)-2-(o-tolyl)quinoline-4-carboxamide] came in with a viability at 0.01 µM in data set [1] (10 nM) of 32%. This compound gave a viability at 0.5 µM in data set [1] (500 nM) of 26%.

Compound `O=C1CCC(N2Cc3cc(CNC(=O)c4cc(-c5ccc(F)cc5)nc5ccccc45)ccc3C2=O)C(=O)N1` (stereo not shown) [Cpd. 14, N-((2-(2,6-dioxopiperidin-3-yl)-1-oxoisoindolin-5-yl)methyl)-2-(4-fluorophenyl)quinoline-4-carboxamide] came in with a viability at 0.01 µM in data set [1] (10 nM) of 33%. The viability at 0.5 µM in data set [1] (500 nM) was found to be 23%.

As for `O=C1CCC(N2Cc3cc(CNC(=O)c4cc(-c5ccccc5F)nc5ccccc45)ccc3C2=O)C(=O)N1` (stereo not shown) [Cpd. 15, N-((2-(2,6-dioxopiperidin-3-yl)-1-oxoisoindolin-5-yl)methyl)-2-(2-fluorophenyl)quinoline-4-carboxamide], the viability at 0.01 µM in data set [1] (10 nM) stood at 31%. Also, the viability at 0.5 µM in data set [1] (500 nM) was determined as 26%.

As for `O=C1CCC(N2Cc3cc(CNC(=O)c4cc5ccccc5cn4)ccc3C2=O)C(=O)N1` (stereo not shown) [compound 1, N-((2-(2,6-dioxopiperidin-3-yl)-1-oxoisoindolin-5-yl)methyl)isoquinoline-3-carboxamide, reference compound], the IC50 in the data set on KG-1 cancer cells was more than 10000 nM.

In the data set with KG-1 cancer cells, `O=C1CCC(N2Cc3cc(CNC(=O)c4cnc5ccccc5n4)ccc3C2=O)C(=O)N1` (stereo not shown) [compound 2, N-((2-(2,6-dioxopiperidin-3-yl)-1-oxoisoindolin-5-yl)methyl)quinolxaline-2-carboxamide, reference compound] came in with an IC50 of more than 10000 nM.

In the case of `O=C1CCC(N2Cc3cc(CNC(=O)c4ccc5cc(Cl)ccc5n4)ccc3C2=O)C(=O)N1` (stereo not shown) [compound 3, 6-chloro-N-((2-(2,6-dioxopiperidin-3-yl)-1-oxoisoindolin-5-yl)methyl)quinoline-2-carboxamide, reference compound], the IC50 in the data set on KG-1 cancer cells is 4100 nM.

The values above are taken from patent US20260152485A1, “ISOINDOLINONE DERIVATIVE HAVING QUINOLINE AMIDE STRUCTURE, AND USE THEREOF” (ONCORD BIO INC, priority 2022, published 2026).
